The structures appear in SMILES notation.

T1 sequence (P13569 whole entry): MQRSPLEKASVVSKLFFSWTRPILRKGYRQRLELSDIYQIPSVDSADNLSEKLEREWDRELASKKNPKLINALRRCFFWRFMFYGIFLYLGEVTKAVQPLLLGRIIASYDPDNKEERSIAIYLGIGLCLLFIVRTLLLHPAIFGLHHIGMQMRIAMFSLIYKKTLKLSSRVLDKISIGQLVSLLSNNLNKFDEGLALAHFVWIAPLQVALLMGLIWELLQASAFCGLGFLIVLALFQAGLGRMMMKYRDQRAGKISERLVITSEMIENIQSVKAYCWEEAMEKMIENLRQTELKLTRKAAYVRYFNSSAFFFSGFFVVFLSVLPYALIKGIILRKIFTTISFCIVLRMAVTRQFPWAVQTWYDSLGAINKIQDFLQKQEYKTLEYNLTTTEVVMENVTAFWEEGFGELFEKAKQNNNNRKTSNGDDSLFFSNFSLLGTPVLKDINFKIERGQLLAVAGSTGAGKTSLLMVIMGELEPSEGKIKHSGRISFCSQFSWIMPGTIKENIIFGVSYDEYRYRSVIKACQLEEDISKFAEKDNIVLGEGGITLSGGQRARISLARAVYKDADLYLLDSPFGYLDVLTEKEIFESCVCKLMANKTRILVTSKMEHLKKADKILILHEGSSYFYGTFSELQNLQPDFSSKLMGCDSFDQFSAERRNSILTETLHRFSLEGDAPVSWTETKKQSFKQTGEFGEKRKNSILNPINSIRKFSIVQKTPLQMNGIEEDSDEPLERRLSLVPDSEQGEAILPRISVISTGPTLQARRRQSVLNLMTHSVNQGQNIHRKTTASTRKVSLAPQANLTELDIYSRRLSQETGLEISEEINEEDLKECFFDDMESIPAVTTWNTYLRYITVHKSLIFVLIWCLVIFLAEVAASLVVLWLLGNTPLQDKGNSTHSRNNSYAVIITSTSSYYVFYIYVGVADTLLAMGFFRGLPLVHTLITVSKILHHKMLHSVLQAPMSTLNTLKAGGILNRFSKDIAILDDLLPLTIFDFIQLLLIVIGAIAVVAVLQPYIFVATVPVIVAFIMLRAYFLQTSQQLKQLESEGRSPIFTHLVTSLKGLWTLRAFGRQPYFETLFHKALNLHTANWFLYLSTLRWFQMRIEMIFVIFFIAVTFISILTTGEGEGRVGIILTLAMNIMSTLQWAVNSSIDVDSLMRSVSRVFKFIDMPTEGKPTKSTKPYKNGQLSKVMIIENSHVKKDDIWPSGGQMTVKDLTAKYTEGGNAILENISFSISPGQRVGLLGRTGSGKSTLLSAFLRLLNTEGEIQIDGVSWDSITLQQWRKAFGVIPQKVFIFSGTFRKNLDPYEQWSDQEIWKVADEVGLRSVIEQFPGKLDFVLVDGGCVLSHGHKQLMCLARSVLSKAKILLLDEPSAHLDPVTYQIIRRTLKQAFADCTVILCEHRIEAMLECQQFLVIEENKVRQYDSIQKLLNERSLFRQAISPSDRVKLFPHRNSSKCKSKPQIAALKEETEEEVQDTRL

The test concerns the target T1, CFTR (Homo sapiens, UniProt P13569).
T1 construct: expressed in transfected cells
Briefly: IonWorks Quattro assay (CFTR Inhibitor Assay), whole-cell planar patch clamp. In kind it is cell-based. The following applies: inward current (−100 mV); CHO cells stably expressing WT-CFTR; CFTR activated by 10 μM forskolin; test compound incubated 10 min. From the text:
CFTR activity can be quantified by electrophysiology methods, using the whole-cell configuration of the patch clamp technique (Hamill O, Marty A, Neher E, Sakmann B and Sigworth F. ‘Improved patch-clamp techniques for high resolution current recording from cells and cell-free membrane patches.’ Pflugers Archive 1981 391: 85-100). This assay directly measures the currents associated with chloride flow through CFTR channels whilst either maintaining or adjusting the transmembrane voltage. This assay can use either single glass micropipettes or parallel planar arrays to measure CFTR activity from native or recombinant cell systems. Currents measured using parallel planar arrays can be quantified using an appropriately equipped instrument such as the IonWorks Quattro (Molecular Devices Corporation, Sunnyvale, Calif.). The Quattro system can measure CFTR currents from either a single cell per recording well (HT configuration) or alternatively from a population of 64 cells per well (Population Patch Clamp PPC) (Finkel A, Wittel A, Yang N, Handran S, Hughes J, Costantin J. ‘Population patch clamp improves data consistency and success rates in the measurement of ionic currents.’ J Biomol Screen. 2006 August; 11 (5):488-96).
Chinese hamster ovary (CHO) cells stably expressing WT-CFTR channels were used for the IonWorks Quattro experiments. Cells were maintained at 37° C. in 5% v/v CO2 at 100% humidity in MEM alpha medium supplemented with 10% (v/v) FCS, 100 U/mL Penicillin/Streptomycin, and 100 μg/L methotrexate. For experiments, cells were grown in 225 cm^2 tissue culture flasks until almost confluent. Cells were removed from the flask using trypsin-EDTA and resuspended in extracellular recording solution for immediate experimentation.
Cells, at a density of 1.5-2 million per mL, were placed on the Quattro system, added to the planar patch plate and seals allowed to establish for 5-10 mins. After assessing seal resistances (typically >50 MΩ), whole-cell access was obtained by perforation with 100 μg/mL amphotericin B. Baseline currents were measured by a pre-compound scan obtained by application of a voltage ramp from −100 to +100 mV. CFTR was activated by the addition of 10 μM forskolin to each of the 384 wells of the patch plate. After 5 min incubation the post-compound 1 currents were measured, again by application of a voltage ramp from −100 to +100 mV. Test compounds, diluted from 10 mM stocks in DMSO in extracellular solution were then added to the patch plate and were incubated for a further 10 min. The post-compound 2 currents were measured by the application of the same voltage ramp from −100 to +100 mV. The inhibition of CFTR was determined from the difference in current between the forskolin addition (post-compound 1) and the test compound (post-compound 2). This was determined at both −100 mV and +100 mV which represents the inward and outward current respectively.
Extracellular solution (ECS): 145 mM NaCl, 4 mM CsCl, 5 mM D-glucose, 10 mM TES, 1 mM CaCl2, 1 mM MgCl2, pH 7.4 NaOH
Intracellular solution (ICS): 113 mM L-Aspartic acid, 113 mM CsOH, 27 mM CsCl, 1 mM NaCl, 1 mM MgCl2, 1 mM EGTA, 10 mM TES. pH 7.2 with CsOH. Filter sterilized before use.
By IC50 is commonly meant the midpoint of a concentration-inhibition curve. High values mean a need for much substance, low ones inhibition by little substance. `Cn1c(=O)c2c(-c3ccccc3)n3c(c2n(C)c1=O)C(c1cccc(Cl)c1)SCC3` (racemic) [Example 1.6, 10-(3-Chlorophenyl)-1,3-dimethyl-5-phenyl-7,8-dihydro-1H-pyrimido[4′,5′:3,4]pyrrolo[2,1-c][1,4]thiazine-2,4(3H,10H)-dione]: the 50% inhibitory concentration (IC50) is 11.1 µM. That is a double-digit micromolar value.
The figure for `Cc1ccc(C2SCCn3c(-c4ccccc4)c4c(=O)n(C)c(=O)n(C)c4c32)s1` (racemic) [Example 1.10, 1,3-Dimethyl-10-(5-methylthiophen-2-yl)-5-phenyl-7,8-dihydro-1H-pyrimido[4′,5′:3,4]pyrrolo[2,1-c][1,4]thiazine-2,4(3H,10H)-dione] is 8.08 µM; for `Cn1c(=O)c2c(-c3ccccc3)n3c(c2n(C)c1=O)C(c1cccc(F)c1F)CCC3` (racemic) [Example 6.1, 10-(2,3-Difluorophenyl)-1,3-dimethyl-5-phenyl-7,8,9,10-tetrahydropyrimido[4,5-a]indolizine-2,4(1H,3H)-dione] it is 27.6 µM.
The figure for `Cn1c(=O)c2c(-c3ccccc3)n3c(c2n(C)c1=O)C(c1cccc(C#N)c1)CCC3` (racemic) [Example 9.2, 3-(1,3-Dimethyl-2,4-dioxo-5-phenyl-1,2,3,4,7,8,9,10-octahydropyrimido[4,5-a]indolizin-10-yl)benzonitrile] is 9.3 µM; for `Cc1csc(C2CCNn3c(-c4ccccc4)c4c(=O)n(C)c(=O)n(C)c4c32)n1` (racemic) [Example 10.0, 1,3-Dimethyl-10-(4-methylthiazol-2-yl)-5-phenyl-7,8,9,10-tetrahydropyrimido[4′,5′:3,4]pyrrolo[1,2-b]pyridazine-2,4(1H,3H)-dione] it is 2.15 µM.
The result for `Cc1csc(C2CCNn3c(-c4cccc(Cl)c4)c4c(=O)n(C)c(=O)n(C)c4c32)n1` (racemic) [Example 10.2, 5-(3-Chlorophenyl)-1,3-dimethyl-10-(4-methylthiazol-2-yl)-7,8,9,10-tetrahydropyrimido[4′,5′:3,4]pyrrolo[1,2-b]pyridazine-2,4(1H,3H)-dione] reads 0.7 µM; that for `Cc1ccc(C2CCn3c(-c4ccccc4)c4c(=O)n(C)c(=O)n(C)c4c32)o1` (racemic) [Example 11.0, 1,3-Dimethyl-9-(5-methylfuran-2-yl)-5-phenyl-8,9-dihydro-1H-pyrimido[4,5-a]pyrrolizine-2,4(3H,7H)-dione], 9.14 µM.
Take `Cn1cnc(-c2c3c(=O)n(C)c(=O)n(C)c3c3n2CCSC3c2ccc(Cl)o2)c1` (racemic) [Example 15.7, 10-(5-Chlorofuran-2-yl)-1,3-dimethyl-5-(1-methyl-1H-imidazol-4-yl)-7,8-dihydro-1H-pyrimido[4′,5′:3,4]pyrrolo[2,1-c][1,4]thiazine-2,4(3H,10H)-dione]: half-maximal inhibition (IC50) was put at 5.5 µM.
The figure for `Cn1cc(-c2c3c(=O)n(C)c(=O)n(C)c3c3n2CCSC3c2ccc(Cl)o2)cn1` (racemic) [Example 15.8, 10-(5-Chlorofuran-2-yl)-1,3-dimethyl-5-(1-methyl-1H-pyrazol-4-yl)-7,8-dihydro-1H-pyrimido[4′,5′:3,4]pyrrolo[2,1-c][1,4]thiazine-2,4(3H,10H)-dione] is 3.93 µM; for `Cc1nnc(-c2c3c(=O)n(C)c(=O)n(C)c3c3n2CCSC3c2ccc(Cl)o2)o1` (racemic) [Example 15.9, 10-(5-Chlorofuran-2-yl)-1,3-dimethyl-5-(5-methyl-1,3,4-oxadiazol-2-yl)-7,8-dihydro-1H-pyrimido[4′,5′:3,4]pyrrolo[2,1-c][1,4]thiazine-2,4(3H,10H)-dione] it is 1.9 µM.
Compound `Cc1coc(-c2c3c(=O)n(C)c(=O)n(C)c3c3n2CCSC3c2ccc(Cl)o2)n1` (racemic) [Example 15.10, 10-(5-Chlorofuran-2-yl)-1,3-dimethyl-5-(4-methyloxazol-2-yl)-7,8-dihydro-1H-pyrimido[4′,5′:3,4]pyrrolo[2,1-c][1,4]thiazine-2,4(3H,10H)-dione] registered an IC50 of 1.18 µM.
The figure for `Cc1ccc(C2c3c4c(c(-c5cccc(F)c5)n3CCC2(F)F)c(=O)n(C)c(=O)n4C)o1` (racemic) [Example 18, 9,9-Difluoro-5-(3-fluorophenyl)-1,3-dimethyl-10-(5-methylfuran-2-yl)-7,8,9,10-tetrahydropyrimido[4,5-a]indolizine-2,4(1H,3H)-dione] is 0.48 µM.
The figure for `Cn1ccc(-c2c3c(=O)n(C)c(=O)n(C)c3c3n2CCCC3c2nc(Cl)cs2)n1` (racemic) [Example 22, 10-(4-Chlorothiazol-2-yl)-1,3-dimethyl-5-(1-methyl-1H-pyrazol-3-yl)-7,8,9,10-tetrahydropyrimido[4,5-a]indolizine-2,4(1H,3H)-dione] is 0.47 µM.
The result for `Cn1c(=O)c2c(-c3nc(C(=O)O)cs3)n3c(c2n(C)c1=O)C(c1ccc(Cl)o1)SCC3` (racemic) [Example 25, 2-(10-(5-Chlorofuran-2-yl)-1,3-dimethyl-2,4-dioxo-2,3,4,7,8,10-hexahydro-1H-pyrimido[4′,5′:3,4]pyrrolo[2,1-c][1,4]thiazin-5-yl)thiazole-4-carboxylic acid] reads 4.84 µM.
Turning to `C=C1Cn2c(-c3cccc(F)c3)c3c(=O)n(C)c(=O)n(C)c3c2C1c1nc(Cl)cs1` (racemic) [Example 29, 9-(4-Chlorothiazol-2-yl)-5-(3-fluorophenyl)-1,3-dimethyl-8-methylene-8,9-dihydro-1H-pyrimido[4,5-a]pyrrolizine-2,4(3H,7H)-dione], the half-inhibitory concentration (IC50) was 0.44 µM.
As for `Cc1ccc(C2SCCn3c(-c4ccccc4)c4c(=O)n(C)c(=O)n(C)c4c32)o1` (single isomer, unassigned) [Example 1.2, 1,3-Dimethyl-10-(5-methylfuran-2-yl)-5-phenyl-7,8-dihydro-1H-pyrimido[4′,5′:3,4]pyrrolo[2,1-c][1,4]thiazine-2,4(3H,10H)-dione], the IC50 amounted to 0.79 µM.
`Cc1ccc(C2SCCn3c(-c4ccccc4)c4c(=O)n(C)c(=O)n(C)c4c32)o1` (single isomer, unassigned) [Example 1.3, 1,3-Dimethyl-10-(5-methylfuran-2-yl)-5-phenyl-7,8-dihydro-1H-pyrimido[4′,5′:3,4]pyrrolo[2,1-c][1,4]thiazine-2,4(3H,10H)-dione] showed an IC50 of over 30 µM.
The figure for `Cc1ccc(C2SC[C@H](CN(C)C)n3c(-c4ccccc4)c4c(=O)n(C)c(=O)n(C)c4c32)o1` (single isomer, unassigned) [Example 2.1, 7-((dimethylamino)methyl)-1,3-dimethyl-10-(5-methylfuran-2-yl)-5-phenyl-7,8-dihydro-1H-pyrimido[4′,5′:3,4]pyrrolo[2,1-c][1,4]thiazine-2,4(3H,10H)-dione] is 0.41 µM; for `Cc1csc(-c2c3c(=O)n(C)c(=O)n(C)c3c3n2CCSC3c2ccc(Cl)o2)n1` (single isomer, unassigned) [Example 3.1.1, 10-(5-chlorofuran-2-yl)-1,3-dimethyl-5-(4-methylthiazol-2-yl)-7,8-dihydro-1H-pyrimido[4′,5′:3,4]pyrrolo[2,1-c][1,4]thiazine-2,4(3H,10H)-dione] it is 0.41 µM; for `Cn1c(=O)c2c(C3=CCCCC3)n3c(c2n(C)c1=O)C(c1ccc(Cl)o1)SCC3` (single isomer, unassigned) [Example 3.1.2, 10-(5-chlorofuran-2-yl)-5-(cyclohex-1-en-1-yl)-1,3-dimethyl-7,8-dihydro-1H-pyrimido[4′,5′:3,4]pyrrolo[2,1-c][1,4]thiazine-2,4(3H,10H)-dione] it is 1.51 µM.
